From patent publication US20210003596A1, “CHEMILUMINESCENT ANDROSTENEDIONE CONJUGATES” (Siemens Healthcare Diagnostics Inc., priority 2017, published 2021)

Tests used:
Assay in all cases: Competitive chemiluminescent immunoassay (ADVIA Centaur), binding of A4-AE conjugates to antibody on solid phase
Design in all cases: species or system sheep; key: a “+” indicates appreciable binding of the specified A4-AE conjugate to the specified antibody; a “−” indicates no appreciable binding was observed
[1] = test system: monoclonal androstenedione antibody 3C3; conditions: binding of A4-AE conjugate to 3C3 antibody, chemiluminescence; lite reagent 20 ng/mL tracer
Protocol: (§1) Evaluation of A4-AE conjugates was performed using the ADVIA Centaur family of immunoassay analyzers (available from Siemens Healthcare Diagnostics Inc., Tarrytown, N.Y.) using a competitive assay format which utilizes a solid phase reagent and a lite reagent. The lite reagent comprises 20 ng/mL of an A4-AE tracer compound. The solid reagent comprises superparamagnetic beads (Dynabeads® M-270 Streptavidin available from ThermoFisher Scientific) labeled with biotinylated monoclonal anti-A4 antibody. Biotinylated sheep monoclonal androstenedione antibodies 3C3, 3H10, or 4G8 (available from Bioventix, UK) are introduced to the streptavidin coated superparamagnetic beads in order to produce solid phase particles attached to the antibody. Solid phase particles mixed with A4-AE in the absence of A4, results in solid phase binding complexes with the A4-AE compounds. When the […], competition for formation of a binding complex at each antibody occurs between A4 and A4-AE conjugates. […] Therefore, an increase in androstenedione concentration in measured samples correlates with a decrease in chemiluminescence of separated and washed solid phase particles binding complexes. Chemiluminescence of the separated solid phase particle binding complexes is induced by addition of an acidic solution (0.5% Peroxide/0.45% Nitric Acid (vol/vol)) followed by a basic solution (0.25N […]/0.45% ARQUAD® 16-50 (w/v)) and measured. Reagent volumes, concentrations, and assay parameters were otherwise identical in each experiment other than variation of the A4-AE tracer conjugate measured. Samples of androstenedione used in the lite reagent were prepared using a human serum albumin-based matrix (available from Bioresource Technology, Inc.) with the androstenedione sample concentrations shown in FIGS. 2A-2D (ng/mL).
(§2) Chemiluminescence was monitored for a variety of A4-AE conjugates. Table 2 below and the corresponding FIGS. 2A-2D summarize the results of chemiluminescent experiments on several A4-AE conjugates which may be synthesized as described in the indicated Example number. In Table 3 a “+” indicates appreciable binding of the specified A4-AE conjugate to the specified antibody and a “−” indicates no appreciable binding was observed.

[2] = test system: monoclonal androstenedione antibody 4G8; conditions: binding of A4-AE conjugate to 4G8 antibody, chemiluminescence; lite reagent 20 ng/mL tracer
Protocol: as §1, §2

[3] = test system: monoclonal androstenedione antibody 3H10; conditions: binding of A4-AE conjugate to 3H10 antibody, chemiluminescence; lite reagent 20 ng/mL tracer
Protocol: as §1, §2

Cc1cc(C(=O)NCCC[N+](C)(CCCNC(=O)COC[C@]23CCC(=O)C=C2CCC2C3CC[C@]3(C)C(=O)CCC23)CCCS(=O)(=O)[O-])cc(C)c1OC(=O)c1c2ccccc2[n+](CCCS(=O)(=O)[O-])c2ccccc12 (stereo partly drawn) [compound 3, A4(19)-CME-NH-Z-ZAE]
3C3 [1]: − | 4G8 [2]: + | 3H10 [3]: +

A4(3)-CMO-Z-ZAE [compound 1]
3C3 [1]: + | 4G8 [2]: − | 3H10 [3]: +

Cc1cc(C(=O)NCCC[N+](C)(CCCNC(=O)CCSC2CC3=CC(=O)CCC3(C)C3CCC4(C)C(=O)CCC4C23)CCCS(=O)(=O)[O-])cc(C)c1OC(=O)c1c2ccccc2[n+](CCCS(=O)(=O)[O-])c2ccccc12 (stereo not drawn) [compound 6, A4(7α)-CETE-NH-Z-ZAE]
3C3 [1]: + | 4G8 [2]: + | 3H10 [3]: +

Cc1cc(C(=O)NCCC[N+](C)(CCCNC(=O)OC2CC3C4CCC(=O)C4(C)CCC3C3(C)CCC(=O)C=C23)CCCS(=O)(=O)[O-])cc(C)c1OC(=O)c1c2ccccc2[n+](CCCS(=O)(=O)[O-])c2ccccc12 (stereo not drawn) [compound 5, A4(6β)-carbamate-NH-Z-ZAE]
3C3 [1]: − | 4G8 [2]: − | 3H10 [3]: −

Cc1cc(C(=O)NCCC[N+](C)(CCCNC(=O)CCC(=O)OC2CC3C4CCC(=O)C4(C)CCC3C3(C)CCC(=O)C=C23)CCCS(=O)(=O)[O-])cc(C)c1OC(=O)c1c2ccccc2[n+](CCCS(=O)(=O)[O-])c2ccccc12 (stereo not drawn) [compound 4, A4(6β)-hemisuccinate-NH-Z-ZAE]
3C3 [1]: + | 4G8 [2]: + | 3H10 [3]: +

Cc1cc(C(=O)NCCC[N+](C)(CCCNC(=O)CON=C2CCC3C4CCC5=CC(=O)CCC5(C)C4CCC23C)CCCS(=O)(=O)[O-])cc(C)c1OC(=O)c1c2ccccc2[n+](CCCS(=O)(=O)[O-])c2ccccc12 (stereo not drawn) [compound 2, A4(17)-CMO-Z-ZAE]
3C3 [1]: − | 4G8 [2]: − | 3H10 [3]: −
